Data set [1] is described as follows: Solubility of compound A in aqueous solutions with different pHs. In kind it is physicochemical. As to conditions: thermodynamic from solid, 25° C. How it is done: An excess amount of compound A and an aqueous solution were placed in a test tube, and the mixture was shaken at 25° C. for 30 sec every 5 min. After 30 min, the solution was filtered with a 0.45 μm membrane filter to give a sample. Using the sample, the concentration of compound A was measured under the following HPLC conditions.
detector: ultraviolet absorption photometer,
measurement wavelength: 260 nm
column: YMC-Pack ProC18, 3 μm, inner diameter: 6 mm,
column temperature: 25° C. • mobile phase: 0.05 mol/L phosphate buffer (pH 3.0)/acetonitrile mixed solution (1:1)

Data set [2] in a line: pH of pH control agent dissolved or suspended in water. To be noted: 1% w/v in water at 25° C. The format is physicochemical. As for the experimental part: Here, the pH of the pH control agent is measured under the following conditions. To be precise, it is a pH of a solution or suspension obtained by dissolving or suspending a pH control agent in water at a concentration of 1% w/v at 25° C.
A pH control agent was dissolved or suspended in water at a concentration of 1% w/v at 25° C., and the resulting solution or suspension was measured for pH.

For orientation: solubility means how much of the substance goes into solution per volume. Higher therefore signals a readily soluble substance. In the case of `CCOc1nc2cccc(C(=O)OCc3oc(=O)oc3C)c2n1Cc1ccc(-c2ccccc2-c2noc(=O)[nH]2)cc1.[K]` [compound A, (5-methyl-2-oxo-1,3-dioxol-4-yl)methyl 2-ethoxy-1-{[2′-(5-oxo-4,5-dihydro-1,2,4-oxadiazol-3-yl)biphenyl-4-yl]methyl}-1H-benzimidazole-7-carboxylate potassium salt], the solubility at 30 min is less than 10 µg/mL in data set [1] (aqueous buffer, pH 2.0 Britton Robinson buffer); less than 10 µg/mL in data set [1] (aqueous buffer, pH 3.0 Britton Robinson buffer); less than 10 µg/mL in data set [1] (aqueous buffer, pH 4.0 Britton Robinson buffer); less than 10 µg/mL in data set [1] (aqueous buffer, pH 5.0 Britton Robinson buffer); less than 10 µg/mL in data set [1] (aqueous buffer, pH 6.0 Britton Robinson buffer); 940 µg/mL in data set [1] (aqueous buffer, pH 7.0 Britton Robinson buffer). In data set [1] (simulated gastric fluid, 0.1 mol/L HCl), this compound registered a solubility at 30 min of less than 10 µg/mL.

For `O=P([O-])(O)O.[Na+]` [sodium dihydrogen phosphate], the “pH (25° C.)” value in data set [2] is reported as 4.56.

On to `O=C([O-])/C=C/C(=O)O.[Na+]` [monosodium fumarate], for which the “pH (25° C.)” value in data set [2] was determined as 3.57.

These data come from patent publication US9066936B2, “Solid pharmaceutical composition comprising a benzimidazole-7-carboxylate derivative and a pH control agent” (Takeda Pharmaceutical Company Limited, priority 2007, dated 2015).
